Experimental data as given in US9233086B2 (THE REGENTS OF THE UNIVERSITY OF MICHIGAN, priority 2010, dated 2016).
Read-outs that look alike come from different tables or passages of the source. *1 amine or outer side, *2 acyl side, *3 side chain or, on linkers, in order; H or OH if unused. Where a SMILES comes first, the peptide text is derived from it. The star is where a group is joined. Isovaleryl = CC(C)CC(=O)*; PhAc = O=C(Cc1ccccc1)*; CO = O=C([*:1])[*:2]; NHBn = c1ccc(CN*)cc1; Bz = O=C(c1ccccc1)*; NHPh = c1ccc(N*)cc1; For = O=C*

Molecular target: WDR5 (Homo sapiens (Human), UniProt P61964)
Assay: FP based competitive binding assay to WDR5
Experimental: Another aspect of the invention is development of a Fluorescent Polarization (FP) based competitive binding assay. […] Next, the millipolarization (mP) values were measured at different time points in order to determine equilibrium duration and stability.
Accordingly, the optimal protein concentrations for the competitive assay was investigated.
All the FP based experiments were performed in MICROFLUOR® 2 Black, “U” Bottom, 96-well Microtiter Plates (ThermoSci.) and FP was measured as mP units in a microplate reader (Tecan Ultra) with excitation at 485 nm and emission at 530 nm. The Kd of the tracers and the IC50 value of the inhibitors were calculated using GraphPad Prism 4 software.
The binding affinities of the synthetic peptides shown in the study were measured using this competitive binding assay. A pre-incubated complex solution of WDR5Δ23 and the tracer in 120 μl assay buffer were added to dilutions of the test compound in 5 μl DMSO, giving final concentrations of WDR5Δ23 and the tracer of 4 nM and 0.6 nM, respectively. […] The plates were incubated with shaking at room temperature. The mP values were measured after five hours of incubation and Ki values were calculated using the equation described previously(31).

[1] = read-out: Binding Affinity to WDR5 (IC50 ± SD), Table 5 peptidomimetics
[2] = 4 nM WDR5Δ23, 0.6 nM 10mer-Thr-FAM tracer, Ki calculated by equation of ref. 31, read-out: Ki ± SD
[3] = 4 nM WDR5Δ23, 0.6 nM 10mer-Thr-FAM tracer, read-out: IC50 ± SD

| Compound | IC50 [1] [nM] | further results |
| --- | --- | --- |
| CC(=O)N[C@@H](C)C(=O)N[C@@H](CCCN)C(=O)N[C@@H](C)C(N)=O [Compound 2B] | > 1000 |  |
| C[C@H](NC(=O)[C@H](CCCNC(=N)N)NC(=O)[C@H](C)NC=O)C(N)=O [CHO-3mer, CHO-ARA-NH2] (For-Ala-Arg-Ala-NH2) |  | Ki [2]: 3200 ± 300 nM; IC50 [3]: 14900 ± 1400 nM; times less potent than Ac-3mer (ratio vs Ac-3mer): 25 |
| Ac-ARAEVH-NH2 [Ac-6mer, Ac-ARAEVH-NH2] |  | IC50 (read-out: IC50 ± SD): 400 ± 100 nM; Ki (read-out: Ki ± SD): 90 ± 20 nM |
| CC(=O)N[C@@H](C)C(=O)N[C@@H](CCCNC(=N)N)C(N)=O [Ac-2mer, Ac-AR-NH2] (Ac-Ala-Arg-NH2) |  | Ki [2]: 27000 ± 1400 nM; IC50 [3]: 125000 ± 6000 nM |
| Ac-ARAEVHL-NH2 [Ac-7mer, Ac-ARAEVHL-NH2] |  | fold decrease of binding affinity relative to Ac-10mer (ratio vs Ac-10mer): 10; IC50 (read-out: IC50 ± SD): 160 ± 30 nM; Ki (read-out: Ki ± SD): 30 ± 10 nM |
| CC(=O)N[C@@H](C)C(=O)N[C@@H](CCCCN)C(=O)N[C@@H](C)C(N)=O [Compound 2C] (Ac-Ala-Lys-Ala-NH2) | > 1000 |  |
| CC(=O)N[C@@H](C)C(=O)N[C@@H](CCCNC(=N)N)C(=O)N[C@H](C(N)=O)[C@@H](C)O [Ac-H3-3mer, Ac-ART-NH2] (Ac-Ala-Arg-Thr-NH2) |  | IC50 [3]: 80 ± 3 nM; Ki (read-out: Ki): 20 nM; fold increase of binding affinity to WDR5 on acetylation of the free amino group (vs corresponding unacetylated H3 peptide): 1500 |
| Ac-ARAEV-NH2 [Ac-5mer, Ac-ARAEV-NH2] |  | IC50 (read-out: IC50 ± SD): 750 ± 100 nM; Ki (read-out: Ki ± SD): 160 ± 30 nM |
| CC(=O)N[C@@H](C)C(=O)N[C@@H](CCCNC(=N)N)C(=O)N[C@@H](C)C(=O)N[C@@H](CCC(=O)O)C(=O)N[C@H](C(=O)N[C@@H](Cc1c[nH]cn1)C(=O)N[C@@H](CC(C)C)C(=O)N[C@@H](CCCNC(=N)N)C(=O)N[C@@H](CCCCN)C(=O)N[C@@H](CO)C(N)=O)C(C)C [Ac-10mer] |  | IC50 [3]: 20 ± 4 nM; times more potent than the WIN peptide (Ki ratio vs WIN): 50; Ki (read-out: Ki): 3 nM |
| C[C@H](N)C(=O)N[C@@H](CCCNC(=N)N)C(=O)N[C@@H](C)C(N)=O [Compound H2N-3mer, H2N-ARA-NH2] (H-Ala-Arg-Ala-NH2) |  | binding to WDR5 (in words): does not bind to WDR5 up to the concentrations tested |

Continued, in another order:

| IC50 [1] [nM] | Compound | further results |
| --- | --- | --- |
| < 1000 | CC(=O)N[C@@H](C)C(=O)N[C@@H](CCCNC(=N)N)C(=O)N[C@@H](C)C(=O)Nc1ccccc1 [Compound 7D] (Ac-Ala-Arg-Ala-NHPh) |  |
| > 1000 | C[C@H](NC(=O)[C@H](CCCNC(=N)N)NC(=O)[C@H](C)NC(=O)c1ccccc1)C(N)=O [Compound 9H] (Bz-Ala-Arg-Ala-NH2) |  |
| > 5000 | CCC(CC)(NC(=O)c1ccccc1)C(=O)N[C@@H](CCCNC(=N)N)C(=O)NC1(C(=O)NC(c2ccccc2)c2ccccc2)CCCC1 [Compound 10I] |  |
| < 1000 | CC(=O)NC1(C(=O)N[C@@H](CCCNC(=N)N)C(=O)N[C@H](C(N)=O)C(C)C)CCCC1 [Compound 4C] |  |
| < 10000 | CC(=O)N[C@H](C(=O)N[C@@H](CCCNC(=N)N)C(=O)NC1(C(N)=O)CCCCC1)C(C)C [Compound 5D] |  |
| > 1000 | CCC(CC)(NC(=O)C(C)C)C(=O)N[C@@H](CCCNC(=N)N(C)C)C(=O)NC1(C(N)=O)CCCC1 [Compound 10G] |  |
| < 10000 | CCC(CC)(NC(=O)C(C)C)C(=O)N[C@@H](CCCNC(=N)N)C(=O)NC1CCCC1 [Compound 11I] |  |
| < 1000 | CC(=O)NC1(C(=O)N[C@@H](CCCNC(=N)N)C(=O)N[C@H](C(N)=O)C(C)C)CCCCC1 [Compound 4D] |  |
| < 100000 | C[C@H](NC(=O)[C@H](CCCNC(=N)N)NC(=O)[C@H](C)NC(=O)N(C)C)C(N)=O [Compound 9J] ({NMe2-CO}-Ala-Arg-Ala-NH2) |  |
| < 30000 | CCC(CC)(NC(=O)C(C)C)C(=O)N[C@@H](CCCNC(=N)N)C(=O)N[C@@H](C)c1ccccc1 [Compound 11G] |  |
| < 10000 | CCC(CC)(NC(=O)C(C)C)C(=O)N[C@@H](CCCNC(=N)N)C(=O)NC(C(C)C)C(C)C [Compound 11J] |  |
| < 1000 | CC(=O)NC1(C(=O)N[C@@H](CCCNC(=N)N)C(=O)N[C@H](C(N)=O)C(C)C)CC1 [Compound 4A] |  |
| > 1000 | CCC(CC)(NC(=O)c1ccccc1)C(=O)N[C@@H](CCCNC(=N)N)C(=O)NC1(C(N)=O)CCCC1 [Compound 10E] |  |
| > 1000 | C[C@H](NC(=O)[C@H](CCCNC(=N)N)NC(=O)[C@H](C)NC(=O)CC1CCCC1)C(N)=O [Compound 9G] |  |
| < 10000 | CCC(CC)(NC(=O)C(C)C)C(=O)N[C@@H](CCCNC(=N)N)C(=O)NCCCCc1ccccc1 [Compound 11N] |  |
| > 25000 | C[C@H](NC(=O)[C@H](CCCNC(=N)N)NC(=O)[C@H](C)NC(=O)Cc1ccccc1)C(N)=O [Compound 9I] (PhAc-Ala-Arg-Ala-NH2) |  |
| < 1000 | CC[C@H](NC(=O)[C@H](CCCNC(=N)N)NC(=O)C1(NC(C)=O)CCC1)C(N)=O [Compound 6D] |  |
| < 1000 | CC(=O)N[C@@H](C)C(=O)N[C@@H](CCCNC(=N)N)C(=O)N[C@@H](C)C(=O)NCc1ccccc1 [Compound 7E] (Ac-Ala-Arg-Ala-NHBn) |  |
| > 10000 | CC(C)CC(=O)N[C@@H](C)C(=O)N[C@@H](CCCNC(=N)N)C(=O)N[C@@H](C)C(N)=O [Compound 9B] (Isovaleryl-Ala-Arg-Ala-NH2) |  |
| < 3000 | CC[C@H](NC(=O)[C@H](CCCNC(=N)N)NC(=O)C(CC)(CC)NC(=O)C(C)C)c1ccccc1 [Compound 11K] |  |
